Measurements: patent US9789089B2 (Gilead Sciences, Inc., priority 2013, dated 2017)
Read-outs that look alike come from different tables or passages of the source.

How the values were obtained:
[1] = Test B: Cytotoxicity assay; assay type: cell-based; conditions: human, uninfected MT-4 cells, same protocol as Test A, CellTiter-Glo
Method: (§1) For the antiviral assay, 40 μL of 1× test concentration of 3-fold serially diluted compound in culture medium with 10% FBS was added to each well of a 384-well plate (10 concentrations) in quadruplicate. MT-4 cells were next mixed with HIV-IIIb at an m.o.i of 0.003 for 1 hour, after which time 35 μL of virus/cell mixture (2000 cells) was immediately added to each well containing 40 μL of diluted compound. The plates were then incubated at 37° C. for 5 days. After 5 days of incubation, 25 μl of 2× concentrated CellTiter-Glo™ Reagent (catalog #G7571, Promega Biosciences, Inc., Madison, Wis.) was added to each well containing MT-4 cells. Cell lysis was carried out by incubating at room temperature for 10 min and then chemiluminescence was read.
Test B:Cytotoxicity assay
Compound cytotoxicity and the corresponding CC50 values was determined using the same protocol as described in the antiviral assay (Test A) except that uninfected cells were used.

[2] = system: HIV-IIIb; assay: Test A: Antiviral Assay in MT4 Cells; assay type: cell-based, HIV-1; conditions: read-out: % inhibition at 6 μM
Method: Test A: Antiviral Assay in MT4 Cells
as §1

[3] = Human immunodeficiency virus 1, MT4, 120 h, percent inhibition of virus-induced cell killing at 6 μM drug concentration, from the dose response curve, MT-4 cells infected with HIV-IIIb, 5 days
[4] = Human immunodeficiency virus 1, IIIB, MT4, 120 h

Compound	CC50 at 5 days [1]	inhibition at 6 µM [2, 3]	inhibition at 6 µM [2, 4]
O=C(Cc1c[nH]c2ccc(F)cc12)N[C@@H](Cc1cc(F)cc(F)c1)c1nocc1-c1ccc(Cl)cc1 [Compound 25I, (S)—N-(1-(4-(4-chlorophenyl)isoxazol-3-yl)-2-(3,5-difluorophenyl)ethyl)-2-(5-fluoro-1H-indol-3-yl)acetamide]	9.89 µM	68%	
O=C(Cn1nc(C(F)(F)F)c2c1CCCC2)N[C@@H](Cc1cc(F)cc(F)c1)c1nocc1-c1ccc(Cl)cc1 [Compound 27, (S)—N-(1-(4-(4-chlorophenyl)isoxazol-3-yl)-2-(3,5-difluorophenyl)ethyl)-2-(3-(trifluoromethyl)-4,5,6,7-tetrahydro-1H-indazol-1-yl)acetamide]	6.17 µM	28%	
Cn1cnc(C(Cc2cc(F)cc(F)c2)NC(=O)Cc2c[nH]c3ccc(F)cc23)c1-c1ccc(Cl)cc1 (centres unmarked) [Compound 29G, N-(1-(5-(4-chlorophenyl)-1-methyl-1H-imidazol-4-yl)-2-(3,5-difluorophenyl)ethyl)-2-(5-fluoro-1H-indol-3-yl)acetamide]	10.8 µM		44%
Cn1cnc(C(Cc2cc(F)cc(F)c2)NC(=O)Cn2nc(C(F)(F)F)c3c2CCCC3)c1-c1ccc(Cl)cc1 (centres unmarked) [Compound 30, N-(1-(5-(4-chlorophenyl)-1-methyl-1H-imidazol-4-yl)-2-(3,5-difluorophenyl)ethyl)-2-(3-(trifluoromethyl)-4,5,6,7-tetrahydro-1H-indazol-1-yl)acetamide]	11 µM	69%	
Cn1cnc(C(Cc2cc(F)cc(F)c2)NC(=O)Cc2c[nH]c3ccc(C(F)(F)F)cc23)c1-c1ccc(Cl)cc1 (centres unmarked) [Compound 32, N-(1-(5-(4-chlorophenyl)-1-methyl-1H-imidazol-4-yl)-2-(3,5-difluorophenyl)ethyl)-2-(5-(trifluoromethyl)-1H-indol-3-yl)acetamide]	11.9 µM	0%	
O=C(Cc1c[nH]c2ccc(O)cc12)NC(Cc1cc(F)cc(F)c1)c1ncoc1-c1ccc(Cl)cc1 (centres unmarked) [Compound 34, N-(1-(5-(4-chlorophenyl)oxazol-4-yl)-2-(3,5-difluorophenyl)ethyl)-2-(5-hydroxy-1H-indol-3-yl)acetamide]	22.1 µM	0%	
COc1ccc2[nH]cc(CC(=O)NC(Cc3cc(F)cc(F)c3)c3ncoc3-c3ccc(Cl)cc3)c2n1 (centres unmarked) [Compound 35, N-(1-(5-(4-chlorophenyl)oxazol-4-yl)-2-(3,5-difluorophenyl)ethyl)-2-(5-methoxy-1H-pyrrolo[3,2-b]pyridin-3-yl)acetamide]	15.3 µM	0%	
O=C(Cn1nc(C(F)(F)F)c2c1CCCC2)NC(Cc1cc(F)cc(F)c1)c1ncoc1-c1ccc(Cl)cc1 (centres unmarked) [Compound 36, N-(1-(5-(4-chlorophenyl)oxazol-4-yl)-2-(3,5-difluorophenyl)ethyl)-2-(3-(trifluoromethyl)-4,5,6,7-tetrahydro-1H-indazol-1-yl)acetamide]	16.3 µM		0%
O=C(Cc1c[nH]c2ccc(F)cc12)NC(Cc1cc(F)cc(F)c1)c1ncoc1-c1ccc(Cl)cc1 (centres unmarked) [Compound 37, N-(1-(5-(4-chlorophenyl)oxazol-4-yl)-2-(3,5-difluorophenyl)ethyl)-2-(5-fluoro-1H-indol-3-yl)acetamide]	10.2 µM	0%	
O=C(Cc1c[nH]c2ccc(O)nc12)NC(Cc1cc(F)cc(F)c1)c1ncoc1-c1ccc(Cl)cc1 (centres unmarked) [Compound 38, N-(1-(5-(4-chlorophenyl)oxazol-4-yl)-2-(3,5-difluorophenyl)ethyl)-2-(5-hydroxy-1H-pyrrolo[3,2-b]pyridin-3-yl)acetamide]	19.1 µM	0%	
